Results: ChEMBL document CHEMBL5352426, “Synthesis and anti-tumor activity of nitrogen-containing derivatives of the natural product diphyllin” (Eur J Med Chem, 2022)
Converted amounts (≈) assume the structure as drawn.

Key:
MIA PaCa-2 [1] = assay: Antiproliferative activity against human MIA PaCa-2 cells assessed as inhibition of cell proliferation at 1 uM incubated for 72 hrs by SRB assay relative to control; format: functional
Panc02 [2] = assay: Antiproliferative activity against mouse Panc02 cells assessed as inhibition of cell proliferation at 1 uM incubated for 72 hrs by SRB assay relative to control; format: functional
PaTu 8988t [3] = assay: Antiproliferative activity against human PaTu 8988t cells assessed as inhibition of cell proliferation at 1 uM incubated for 72 hrs by SRB assay relative to control; format: functional
[4] = Antiproliferative activity against human L02 cells assessed as inhibition of cell proliferation at 1 uM incubated for 72 hrs by SRB assay relative to control; format: toxicity, cell-based
CFPAC-1 [5] = assay: Antiproliferative activity against human CFPAC-1 cells assessed as inhibition of cell proliferation at 1 uM incubated for 72 hrs by SRB assay relative to control; format: functional
CFPAC-1 [6] = assay: Induction of cell cycle arrest in human CFPAC-1 cells assessed as accumulation at S phase at 100 nM incubated for 24 hrs by flow cytometry (reference value: 28.5 %); format: functional
CFPAC-1 [7] = assay: Induction of cell cycle arrest in human CFPAC-1 cells assessed as accumulation at G1 phase at 10 nM incubated for 24 hrs by flow cytometry (reference value: 57.6 %); format: functional
CFPAC-1 [8] = assay: Induction of apoptosis in human CFPAC-1 cells assessed as necrotic cells at 1 uM incubated for 24 hrs by annexin V-FITC/PI staining based flow cytometry (reference value: 0.27 %); format: functional
[9] = Aqueous solubility of the compound at 1 to 2 mg measured after 24 hrs by HPLC-MS analysis; format: physicochemical; settings: aqueous (not further specified), dose 1-2 mg
CFPAC-1 [10] = assay: Induction of cell cycle arrest in human CFPAC-1 cells assessed as accumulation at G2 phase at 1000 nM incubated for 24 hrs by flow cytometry (reference value: 11 %); format: functional
CFPAC-1 [11] = assay: Induction of apoptosis in human CFPAC-1 cells assessed as late apoptotic cells at 1 uM incubated for 24 hrs by annexin V-FITC/PI staining based flow cytometry (reference value: 3.88 %); format: functional
[12] = Toxicity in C57BL/6 mouse xenografted with […] cells assessed as drug tolerance at 10 mg/kg, ip administered every two days for 20 days; format: organism-based; settings: in vivo, 480 h, time 20 day
[13] = Metabolic stability in mouse liver microsome assessed as half life; format: ADME; settings: liver microsomes
CFPAC-1 [14] = assay: Induction of apoptosis in human CFPAC-1 cells assessed as early apoptotic cells at 10 uM incubated for 24 hrs by annexin V-FITC/PI staining based flow cytometry (reference value: 2.93 %); format: functional
CFPAC-1 [15] = assay: Induction of cell cycle arrest in human CFPAC-1 cells assessed as accumulation at G2 phase at 10 nM incubated for 24 hrs by flow cytometry (reference value: 11 %); format: functional
CFPAC-1 [16] = assay: Induction of apoptosis in human CFPAC-1 cells assessed as early apoptotic cells at 1 uM incubated for 24 hrs by annexin V-FITC/PI staining based flow cytometry (reference value: 2.93 %); format: functional
CFPAC-1 [17] = assay: Induction of cell cycle arrest in human CFPAC-1 cells assessed as accumulation at G2 phase at 100 nM incubated for 24 hrs by flow cytometry (reference value: 11 %); format: functional
Panc02 [18] = assay: Antitumor activity against […] Panc02 cells xenografted in C57BL/6 mouse assessed as tumor growth inhibition at 10 mg/kg, ip administered every two days for 20 days by electronic caliper method relative to control; format: functional; settings: Panc02, 480 h, time 20 day, read-out: TGI
CFPAC-1 [19] = assay: Induction of cell cycle arrest in human CFPAC-1 cells assessed as accumulation at G1 phase at 100 nM incubated for 24 hrs by flow cytometry (reference value: 57.6 %); format: functional
CFPAC-1 [20] = assay: Induction of apoptosis in human CFPAC-1 cells assessed as viable cells at 10 uM incubated for 24 hrs by annexin V-FITC/PI staining based flow cytometry (reference value: 92.9 %); format: functional; settings: read-out: Activity
CFPAC-1 [21] = assay: Induction of cell cycle arrest in human CFPAC-1 cells assessed as accumulation at G1 phase at 1000 nM incubated for 24 hrs by flow cytometry (reference value: 57.6 %); format: functional
[22] = Metabolic stability in human liver microsome assessed as half life; format: ADME; settings: liver microsomes
[23] = Metabolic stability in mouse liver microsome assessed as intrinsic clearance; format: ADME; settings: liver microsomes, read-out: CLH
MIA PaCa-2 [24] = assay: Antiproliferative activity against human MIA PaCa-2 cells assessed as inhibition of cell proliferation incubated for 72 hrs by SRB assay; format: functional, cell-based; settings: MIA PaCa-2, 72 h
CFPAC-1 [25] = assay: Induction of cell cycle arrest in human CFPAC-1 cells assessed as accumulation at S phase at 1000 nM incubated for 24 hrs by flow cytometry (reference value: 28.5 %); format: functional
[26] = Metabolic stability in human liver microsome assessed as hepatic clearance; format: ADME; settings: microsomes
[27] = Metabolic stability in mouse liver microsome assessed as hepatic clearance; format: ADME; settings: microsomes
[28] = Metabolic stability in human liver microsome assessed as intrinsic clearance; format: ADME; settings: liver microsomes, read-out: CLH
[29] = Toxicity in C57BL/6 mouse xenografted with […] cells assessed as body weight loss at 10 mg/kg, ip administered every two days for 20 days; format: organism-based; settings: in vivo, 480 h, time 20 day
PaTu 8988t [30] = assay: Antiproliferative activity against human PaTu 8988t cells assessed as inhibition of cell proliferation incubated for 72 hrs by SRB assay; format: functional, cell-based
CFPAC-1 [31] = assay: Induction of apoptosis in human CFPAC-1 cells assessed as necrotic cells at 10 uM incubated for 24 hrs by annexin V-FITC/PI staining based flow cytometry (reference value: 0.27 %); format: functional
Panc02 [32] = assay: Antiproliferative activity against mouse Panc02 cells assessed as inhibition of cell proliferation incubated for 72 hrs by SRB assay; format: functional, cell-based; settings: Panc02, 72 h
CFPAC-1 [33] = assay: Induction of apoptosis in human CFPAC-1 cells assessed as viable cells at 1 uM incubated for 24 hrs by annexin V-FITC/PI staining based flow cytometry (reference value: 92.9 %); format: functional; settings: read-out: Activity
CFPAC-1 [34] = assay: Induction of cell cycle arrest in human CFPAC-1 cells assessed as accumulation at S phase at 10 nM incubated for 24 hrs by flow cytometry (reference value: 28.5 %); format: functional
CFPAC-1 [35] = assay: Induction of apoptosis in human CFPAC-1 cells assessed as late apoptotic cells at 10 uM incubated for 24 hrs by annexin V-FITC/PI staining based flow cytometry (reference value: 3.88 %); format: functional
[36] = Antiproliferative activity against human L02 cells assessed as inhibition of cell proliferation incubated for 72 hrs by SRB assay; format: toxicity, cell-based
CFPAC-1 [37] = assay: Antiproliferative activity against human CFPAC-1 cells assessed as inhibition of cell proliferation incubated for 72 hrs by SRB assay; format: functional, cell-based; settings: CFPAC-1, 72 h

Compound `COc1cc2c(NS(N)(=O)=O)c3c(c(-c4ccc5c(c4)OCO5)c2cc1OC)C(=O)OC3` has an inhibition at 1 µM (MIA PaCa-2 [1]) of 29%, an inhibition at 1 µM (Panc02 [2]) of 80.7% and an inhibition at 1 µM (PaTu 8988t [3]) of 34.1%. The inhibition at 72 h, 1 µM [4] was 14.9% and the inhibition at 1 µM (CFPAC-1 [5]) was 72.4%.

In the case of `CNc1c2c(c(-c3ccc4c(c3)OCO4)c3cc(OC)c(OC)cc13)C(=O)OC2`, the inhibition at 1 µM (MIA PaCa-2 [1]) is reported as 92.3%, the inhibition at 1 µM (Panc02 [2]) is reported as 91.4% and the inhibition at 1 µM (PaTu 8988t [3]) is reported as 92%. It also gave an inhibition at 72 h, 1 µM [4] of 35.5% and an inhibition at 1 µM (CFPAC-1 [5]) of 82.1%.

`COc1cc2c(N)c3c(c(-c4ccc5c(c4)OCO5)c2cc1OC)C(=O)OC3` showed an Activity (CFPAC-1 [6]) of 12.7%, an Activity (CFPAC-1 [7]) of 74.3% and an Activity (CFPAC-1 [8]) of 0.4%. It also gave a solubility at 24 h [9] of 0.028 µg/mL (≈ 0.0738 µM), an Activity (CFPAC-1 [10]) of 3.66% and an Activity (CFPAC-1 [11]) of 11.9%. For the same compound, the Activity [12] was “Non-Toxic”, the half-life [13] was 28.5 min and the Activity (CFPAC-1 [14]) was 2.21%. The Activity (CFPAC-1 [15]) was 8%, the Activity (CFPAC-1 [16]) was 2.91% and the Activity (CFPAC-1 [17]) was 3.61%. The inhibition at 1 µM (MIA PaCa-2 [1]) was 91%, the inhibition in vivo at 10 mg/kg (Panc02 [18]) was 44.7% and the inhibition at 1 µM (Panc02 [2]) was 90%. It also gave an Activity (CFPAC-1 [19]) of 80.9%, a viability at 10 µM (CFPAC-1 [20]) of 86.1% and an Activity (CFPAC-1 [21]) of 83.8%. For the same compound, the half-life [22] was 88.7 min, the microsomal CLint [23] was 48.7 µL/min/mg and the IC50 (MIA PaCa-2 [24]) was 11 nM. For the same compound, the Activity (CFPAC-1 [25]) was 10.3%, the CLH [26] was 9.6 mL/min/kg and the CLH [27] was 61.3 mL/min/kg. It also gave an inhibition at 1 µM (PaTu 8988t [3]) of 89.9%, a microsomal CLint [28] of 15.6 µL/min/mg and an inhibition at 72 h, 1 µM [4] of 34.4%. For the same compound, the Activity [29] was “Non-Toxic”, the IC50 (PaTu 8988t [30]) was 37 nM and the Activity (CFPAC-1 [31]) was 0.69%. The inhibition at 1 µM (CFPAC-1 [5]) was 78.6%, the IC50 (Panc02 [32]) was 19 nM and the viability at 1 µM (CFPAC-1 [33]) was 84.8%. It also gave an Activity (CFPAC-1 [34]) of 15.6%, an Activity (CFPAC-1 [35]) of 11% and an IC50 at 72 h [36] of 487 nM. It also gave an IC50 (CFPAC-1 [37]) of 3 nM.

For `COc1cc2c(OCc3cn([C@H]4O[C@@H](C)[C@H](OC(C)=O)[C@@H](OC(C)=O)[C@H]4OC(C)=O)nn3)c3c(c(-c4ccc5c(c4)OCO5)c2cc1OC)C(=O)OC3`, the inhibition at 1 µM (MIA PaCa-2 [1]) was 83.7%, the inhibition at 1 µM (Panc02 [2]) was 76.3% and the IC50 (MIA PaCa-2 [24]) was 248 nM. It also gave an inhibition at 1 µM (PaTu 8988t [3]) of 72.5%, an inhibition at 72 h, 1 µM [4] of 21.6% and an IC50 (PaTu 8988t [30]) of 163 nM. The inhibition at 1 µM (CFPAC-1 [5]) was 65.9%, the IC50 (Panc02 [32]) was 270 nM and the IC50 at 72 h [36] was 1230 nM. For the same compound, the IC50 (CFPAC-1 [37]) was 97 nM.

`COc1cc2c(OCCCc3cn([C@H]4O[C@@H](C)[C@H](O)[C@@H](O)[C@H]4O)nn3)c3c(c(-c4ccc5c(c4)OCO5)c2cc1OC)C(=O)OC3` gave an inhibition at 1 µM (MIA PaCa-2 [1]) of 46.5%, an inhibition at 1 µM (Panc02 [2]) of 16.6% and an inhibition at 1 µM (PaTu 8988t [3]) of 8.08%. The inhibition at 72 h, 1 µM [4] was -0.18% and the inhibition at 1 µM (CFPAC-1 [5]) was 45.9%.

For `COc1cc2c(OCCOCc3cn([C@H]4O[C@@H](C)[C@H](OC(C)=O)[C@@H](OC(C)=O)[C@H]4OC(C)=O)nn3)c3c(c(-c4ccc5c(c4)OCO5)c2cc1OC)C(=O)OC3`, the inhibition at 1 µM (MIA PaCa-2 [1]) was 72.4%, the inhibition at 1 µM (Panc02 [2]) was 53.4% and the IC50 (MIA PaCa-2 [24]) was 756 nM. For the same compound, the inhibition at 1 µM (PaTu 8988t [3]) was 86.5%, the inhibition at 72 h, 1 µM [4] was 16.4% and the IC50 (PaTu 8988t [30]) was 766 nM. For the same compound, the inhibition at 1 µM (CFPAC-1 [5]) was 66.7%, the IC50 (Panc02 [32]) was 216 nM and the IC50 at 72 h [36] was 1040 nM. The IC50 (CFPAC-1 [37]) was 50 nM.

Compound `COc1cc2c(NC(=O)OC(C)(C)C)c3c(c(-c4ccc5c(c4)OCO5)c2cc1OC)C(=O)OC3` has an inhibition at 1 µM (MIA PaCa-2 [1]) of 52.5%, an inhibition at 1 µM (Panc02 [2]) of 78.1% and an IC50 (MIA PaCa-2 [24]) of 161 nM. It also gave an inhibition at 1 µM (PaTu 8988t [3]) of 72%, an inhibition at 72 h, 1 µM [4] of 9.56% and an IC50 (PaTu 8988t [30]) of 88 nM. The inhibition at 1 µM (CFPAC-1 [5]) was 70.5%, the IC50 (Panc02 [32]) was 261 nM and the IC50 at 72 h [36] was 5120 nM. For the same compound, the IC50 (CFPAC-1 [37]) was 37 nM.

Work on `COc1cc2c(N)c3c(c(-c4ccc5c(c4)OCO5)c2cc1OC)C(=O)OC3.Cl` yielded a solubility at 24 h [9] of 0.055 µg/mL.
